One test deals with breast cancer cells. The test can be described thus: Wound healing assay. The test is classed as cell-based. The following applies: 36 h, compared with the control group.
The test system of test [1] is 4T1-luc mouse mammary tumor. The experiment in a line: In vivo antitumor efficacy and biosafety study, 4T1-luc tumor-bearing mice. Conditions: 8 mg/kg, peritumoral injection every other day, 19 days.
Test [2] deals with T1, recombinant protein His-SND1 (16-339) (UniProt Q7KZF4 16-339).
T1 sequence (looked up): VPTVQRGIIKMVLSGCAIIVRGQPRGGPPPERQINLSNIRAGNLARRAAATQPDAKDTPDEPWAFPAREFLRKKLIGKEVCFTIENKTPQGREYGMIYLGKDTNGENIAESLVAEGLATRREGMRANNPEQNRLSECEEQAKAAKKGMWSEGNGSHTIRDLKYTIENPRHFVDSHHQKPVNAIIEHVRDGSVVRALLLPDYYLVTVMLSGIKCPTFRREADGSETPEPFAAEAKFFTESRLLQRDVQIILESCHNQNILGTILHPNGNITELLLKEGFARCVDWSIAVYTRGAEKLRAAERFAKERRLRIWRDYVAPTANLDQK
The experiment in a line: fluorescence polarisation. On the technique in general: In fluorescence polarisation assays a small probe gives low polarisation when free and higher when bound to something large.

Ends that are not written are not given here.

Turning to `C[S+]1CC[C@@H](C(=O)N[C@@H](CCC(=O)O)C(=O)N[C@@H](Cc2c[nH]c3ccccc23)C(=O)O)NC(=O)[C@H](CCCNC(=N)N)NC(=O)[C@H](Cc2c[nH]cn2)NC(=O)[C@H](CCC(=O)O)NC(=O)[C@@H](NC(=O)[C@H](CCCNC(=N)N)NC(=O)[C@H](CCCNC(=N)N)NC(=O)OCC2c3ccccc3-c3ccccc32)CC[S+](C)Cc2cccc(c2)C1` (stereo partly drawn) [Wpc], the tumor migration suppression result in the test with breast cancer cells is recorded as “little effect”. Further, the “tumor growth suppression (in words)” value in test [1] is “failed to suppress the tumor growth”.

Usually Kd stands for a measure of binding affinity in units of concentration. With DWNEPAEEWGNWVDE (peptide, UniProt Q86UE4 393-407, looked up, also: FITC label (position not given here)) [MS2D-E], the Kd in test [2] was roughly 34 nM.

(Values after publication PMC10806767 (JACS Au, 2023).)
